Laboratory results as given in PMC12663294 (Nature Communications, 2025).
Like-named read-outs stand apart in the source and are kept apart here.

Legend:
[1] = system: GAL4/UAS-AngCoeae6g mosquitoes; assay: WHO tube/adult bioassays; design: species or system Anopheles gambiae; settings: in vivo
[2] = system: active serine hydrolases (FP-reactive bands, ~62–70 kDa) in An. gambiae homogenates; assay type: biochemical, Anopheles gambiae (Kisumu strain)
[3] = molecular target: T1, recombinant An. coluzzii Coeae6g (Anopheles coluzzii, UniProt A0A6E8VQK1); assay: Insecticide inhibition of α-NA hydrolysis by recombinant Coeae6g; assay type: biochemical; settings: for IC50 (μΜ) (95% CI) of α-NA hydrolysis: 10 min pre-incubation, α-NA at Km, Sf9 homogenate expressing Coeae6g
T1 sequence (A0A6E8VQK1 1-582): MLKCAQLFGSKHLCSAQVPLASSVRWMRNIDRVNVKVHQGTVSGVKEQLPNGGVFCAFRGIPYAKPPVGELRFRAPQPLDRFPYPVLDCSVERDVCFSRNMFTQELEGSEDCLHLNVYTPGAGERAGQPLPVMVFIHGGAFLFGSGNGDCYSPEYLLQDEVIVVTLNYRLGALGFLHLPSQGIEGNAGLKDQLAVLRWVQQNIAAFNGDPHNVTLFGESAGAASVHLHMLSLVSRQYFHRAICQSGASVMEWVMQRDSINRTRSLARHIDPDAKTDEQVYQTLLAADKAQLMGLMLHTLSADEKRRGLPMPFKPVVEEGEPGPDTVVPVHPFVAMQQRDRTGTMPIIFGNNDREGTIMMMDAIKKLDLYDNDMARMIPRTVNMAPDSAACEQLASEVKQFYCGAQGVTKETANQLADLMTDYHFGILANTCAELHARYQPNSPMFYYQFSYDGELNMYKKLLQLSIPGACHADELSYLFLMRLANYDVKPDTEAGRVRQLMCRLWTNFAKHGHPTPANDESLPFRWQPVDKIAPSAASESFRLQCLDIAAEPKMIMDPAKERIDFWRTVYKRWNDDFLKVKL

[4] = system: GAL4/UAS-AncCoeae6g mosquitoes; assay: WHO tube/adult bioassays
[5] = system: A11 parental line mosquitoes; assay: WHO tube/adult bioassays; assay type: in vivo, Anopheles gambiae; settings: exposure for 10 and 15 min, three replicates
[6] = molecular target: T1, recombinant An. coluzzii Coeae6g; assay type: biochemical; settings: for Km: read-out: Km (95% CI); for Km / Vmax (95% CI): substrate of recombinant Coeae6g (Sf9-Coeae6g); for fold increased esterase activity compared to YFP-expressing and uninfected Sf9 cells: resuspended cell pellets expressing Coeae6g
[7] = system: whole extracts of An. gambiae Coeae6g overexpressing mosquitoes; assay: Total esterase activity of whole mosquito extracts towards model substrates; assay type: biochemical, Anopheles gambiae
[8] = system: GAL4/UAS-AncCoeae6g mosquitoes; settings: in vivo

**Q.** How did the Mortality rate [1] turn out when `CCN(CC)c1nc(C)cc(OP(=S)(OC)OC)n1` [PM, pirimiphos-methyl] was run?
**A.** 67%

**Q.** What about the “T-FP labelling of distinct ~90 kDa band” value [2] of the same molecule?
**A.** not affected

**Q.** What about the “T-FP labelling of prominent bands at ~62–70 kDa” value [2] of the same molecule?
**A.** markedly reduced

**Q.** What about the IC50 ([2]; read-out: IC₅₀ (FP-TAMRA labelled ~62–70 kDa band intensity)) of the same molecule?
**A.** ~10.6 µM

**Q.** What about the “IC50 (μΜ) (95% CI) of α-NA hydrolysis” value [3] of the same molecule?
**A.** No inhibition

**Q.** And the Mortality rate ([4]; in vivo)?
**A.** 79%

**Q.** Which results are given for `CC1(C)[C@H](C(=O)O[C@H](C#N)c2cccc(Oc3ccccc3)c2)[C@@H]1C=C(Br)Br` [Deltamethrin, deltamethrin]?
**A.** IC50 [3]: > 450 µM; IC50 (μΜ) (95% CI) of α-NA hydrolysis [3]: no inhibition; Mortality ([4]; exposure for 10 and 15 min, three replicates): 100%; Mortality [5]: 100%

**Q.** What does the source list for `CC(=O)Oc1cccc2ccccc12` [α-NA, α-naphthyl acetate]?
**A.** Km [6]: 68.5 µM; fold increased esterase activity compared to YFP-expressing and uninfected Sf9 cells [6]: 8-12 fold; Vmax (95% CI) [6]: 307.7 nmol min^−1 mg total protein^−1

**Q.** With `CC(=O)Oc1ccc2ccccc2c1` [β-NA, β-naphthyl acetate] as the molecule, how does the Km [6] read?
**A.** 369 µM

**Q.** What about the “fold increased esterase activity compared to YFP-expressing and uninfected Sf9 cells” value [6] of the same molecule?
**A.** 8-12 fold

**Q.** What about the “Vmax (95% CI)” value [6] of the same molecule?
**A.** 253.0 nmol min^−1 mg total protein^−1

**Q.** What about the “fold higher total carboxylesterase activity than control parental mosquitoes” value [7] of the same molecule?
**A.** 2.3 fold

**Q.** Which results are given for `CC1(C)C(C=C(Cl)Cl)C1C(=O)OCc1cccc(Oc2ccccc2)c1` (centres unmarked) [Permethrin, permethrin]?
**A.** IC50 [3]: 130 µM; Mortality rate [8]: 81.8%

**Q.** `CNC(=O)Oc1cccc2c1OC(C)(C)O2` [Bendiocarb, bendiocarb] was tested. Which IC50 [3] did it give?
**A.** 7.27 µM

**Q.** How did the IC50 [3] turn out when `CCOC(=O)CC(SP(=O)(OC)OC)C(=O)OCC` (centres unmarked) [Malaoxon, malaoxon] was run?
**A.** 0.24 µM

**Q.** With `CCOC(=O)CC(SP(=S)(OC)OC)C(=O)OCC` (centres unmarked) [Malathion, malathion] as the molecule, how does the IC50 [3] read?
**A.** > 45 µM

**Q.** And the “IC50 (μΜ) (95% CI) of α-NA hydrolysis” value [3]?
**A.** No inhibition

**Q.** How did the “fold increased esterase activity compared to YFP-expressing and uninfected Sf9 cells” value [6] turn out when `CC(=O)Oc1ccc([N+](=O)[O-])cc1` [p-NPA, p-nitrophenyl acetate] was run?
**A.** 8-12 fold

**Q.** And the “fold higher total carboxylesterase activity than control parental mosquitoes” value [7]?
**A.** 2.9 fold

**Q.** Which IC50 [3] does the source give for `CNC(=O)Oc1ccccc1OC(C)C` [Propoxur, propoxur] here?
**A.** 3.52 µM
